Source: ChEMBL document CHEMBL5726506, “Heterocyclic kinase inhibitors” (2017)

Experiment: Inhibition Assay: Class I PI3-Ks can be either purchased (p110α/p85α, p110β/p85α, p110δ/p85α from Upstate, and p110γ from Sigma) or expressed as previously described (Knight et al., 2004). IC50 values are measured using either a standard TLC assay for lipid kinase activity (described below) or a high-throughput membrane capture assay. Kinase reactions are performed by preparing a reaction mixture containing kinase, inhibitor (2% DMSO final concentration), buffer (25 mM HEPES, pH 7.4, 10 mM MgCl2), and freshly sonicated phosphatidylinositol (100 μg/ml). Reactions are initiated by the addition of ATP containing 10 μCi of γ-32P-ATP to a final concentration 10 or 100 μM and allowed to proceed for 5 minutes at room temperature. For TLC analysis, reactions are then terminated by the addition of 105 l 1N HCl followed by 160 μl CHCl3:MeOH (1:1). The biphasic mixture is vortexed, briefly centrifuged, and the organic phase is transferred to a new tube using a gel loading pipette tip precoated with CHCl3. This extract is spotted on TLC plates and developed for 3-4 hours in a 65:35 solution of n-propanol:1M acetic acid. The TLC plates are then dried, exposed to a phosphorimager screen (Storm, Amersham), and quantitated. For each compound, kinase activity is measured at 10-12 inhibitor concentrations representing two-fold dilutions from the highest concentration tested (typically, 200 μM).

IC50 | SMILES
> 1000 nM | Nc1nc2ccc(-c3nn(Cc4cc5ccccc5nc4-c4ccccc4C(F)(F)F)c4ncnc(N)c34)cc2[nH]1
> 1000 nM | CN1CCN(c2nc3ccccc3cc2Cn2nc(-c3cc(O)cc(F)c3)c3c(N)ncnc32)CC1
